This is an account of results in patent US10004701B2, “Methods and compositions for treating infection” (UNIVERSITY OF ROCHESTER, priority 2012, dated 2018).

The structures appear in SMILES notation. Values after ≈ are worked out from the molar mass of the structure shown. Like-named read-outs stand apart in the source and are kept apart here.

In experiment [1] the test system is Enterococcus faecium 824-05. Put plainly: MIC testing. The following applies: 82405. It counts as cell-based.
In experiment [2] the test system is Staphylococcus aureus. Put plainly: MIC testing. In kind it is cell-based.
Experiment [3] relates to Klebsiella pneumoniae cKP1. Put plainly: MIC testing. It counts as cell-based.
Experiment [4] deals with Acinetobacter baumannii 98-37-09. Put plainly: MIC testing. In kind it is cell-based. The following applies: 983709; Acinetobacter baumannii 98-37-09; read-out: MIC.
Experiment [5] deals with Pseudomonas aeruginosa PA01. Put plainly: MIC testing. In kind it is cell-based.
Experiment [6] concerns Enterobacter cloacae PMD1001. Description: MIC testing. It counts as cell-based.
The subject of experiment [7] is Escherichia coli 8295. Description: MIC testing. It counts as cell-based.
In experiment [8] the test system is Klebsiella pneumoniae cKP1. Put plainly: AK assay 96-well format. It counts as cell-based.
Experiment [9] relates to Pseudomonas aeruginosa PA01. Description: AK assay 96-well format. It counts as cell-based.
Experiment [10] deals with Enterobacter cloacae PMD1001. Description: AK assay 96-well format. In kind it is cell-based.
In experiment [11] the test system is Escherichia coli 8295. Put plainly: AK assay 96-well format. In kind it is cell-based.
Experiment [12] deals with S. aureus SCV strain UAMS-1112. Description: Small-colony variant AK assay (with plating). To be noted: S. aureus UAMS-1112; 1× or 10×MIC for 3 h. In kind it is cell-based, Staphylococcus aureus. As to the method:
Thirty-six-hour cultures of S. aureus strain UAMS-1112 were used to inoculate (1:100 dilution) 100 ml of fresh MH medium and grown at 37° C. on a rotary shaker at 225 rpm to an optical density (600 nm) of 0.1 to 0.2, corresponding to ˜1×10^6 CFU ml^−1. Cells were pelleted by centrifugation and resuspended in 2 ml of fresh MH medium. Ninety-eight microliters of MH medium containing 5×10^6 bacteria and 2 μl of the indicated antibiotic were added to individual wells of a white-walled, 96-well microtiter plate. Well components were mixed by pipetting and incubated at 37° C. for 3 h. The plate was equilibrated to room temperature for 30 min. Next, 100 μl of ToxiLight AK reagent was added to each well, followed by incubation at room temperature for 30 min, and luminescence was measured using a SpectraMax M5 plate reader.
SCV are slow-growing populations of bacterial species that have been hypothesized to cause latent or recurrent infections and are tolerant of standard antibiotic treatment regimens. Based on the aberrant SCV growth characteristics, typical growth-based HTS assays would be difficult to employ. Accordingly, the ability of the AK assay to identify agents that kill S. aureus SCV strain UAMS-1112 was tested. […].

Experiment [13] has as its system Enterococcus faecium 824-05. Description: AK assay 96-well format. It counts as cell-based.
The test system of experiment [14] is E. faecium. Put plainly: AK assay 384-well format, Prestwick library screening. The following applies: Enterococcus faecium, 3 h, 50 μM final drug concentration, cutoff for positive-scoring molecules 3-fold increase, read-out: AK-based Prestwick Library Screening Results, E. faecium (increase in extracellular AK activity). In kind it is cell-based, Enterococcus faecium.

Experiment [15] deals with S. aureus strain USA300-0114. The description is as above. The following applies: Staphylococcus aureus, USA300, 3 h, 50 μM final drug concentration, cutoff for positive-scoring molecules 3-fold increase, read-out: AK-based Prestwick Library Screening Results, S. aureus (increase in extracellular AK activity). It counts as cell-based, Staphylococcus aureus.
Experiment [16] concerns K. pneumoniae. Described as above. In kind it is cell-based, Klebsiella pneumoniae. To be noted: Klebsiella pneumoniae, 3 h, 50 μM final drug concentration, cutoff for positive-scoring molecules 3-fold increase, read-out: AK-based Prestwick Library Screening Results, K. pneumoniae (increase in extracellular AK activity).
Experiment [17] deals with A. baumannii strain 98-37-09. Described as above. It counts as cell-based, Acinetobacter baumannii. The following applies: Acinetobacter baumannii, 983709, 3 h, 50 μM final drug concentration, cutoff for positive-scoring molecules 3-fold increase, read-out: AK-based Prestwick Library Screening Results, A. baumannii (increase in extracellular AK activity).
In experiment [18] the test system is P. aeruginosa. The description is as above. It counts as cell-based, Pseudomonas aeruginosa. To be noted: for fold induction at 50 µM: Pseudomonas aeruginosa, 3 h, 50 μM final drug concentration, cutoff for positive-scoring molecules 3-fold increase, read-out: AK-based Prestwick Library Screening Results, P. aeruginosa (increase in extracellular AK activity).
Experiment [19] deals with E. cloacae. The description is as above. The following applies: Enterobacter cloacae, 3 h, 50 μM final drug concentration, cutoff for positive-scoring molecules 3-fold increase, read-out: AK-based Prestwick Library Screening Results, E. cloacae (increase in extracellular AK activity). In kind it is cell-based, Enterobacter cloacae.
In experiment [20] the test system is E. coli. Described as above. The following applies: Escherichia coli, 3 h, 50 μM final drug concentration, cutoff for positive-scoring molecules 3-fold increase, read-out: AK-based Prestwick Library Screening Results, E. coli (increase in extracellular AK activity). It counts as cell-based, Escherichia coli.
Where [21] appears, read: Staphylococcus aureus USA300-0114, read-out: MIC.
Setting [22] is: Klebsiella pneumoniae cKP1, read-out: MIC.
Where [23] appears, read: Enterococcus faecium 824-05, read-out: MIC.

Turning to `C[C@@H](O)[C@H]1C(=O)N2C(C(=O)O)=C(S[C@@H]3CN[C@H](C(=O)N(C)C)C3)[C@H](C)[C@H]12` [Meropenem, meropenem], the MIC in experiment [1] (Enterococcus faecium) is greater than 256 mg/L; in [2] (Staphylococcus aureus), 2 mg/L (≈ 5.22 µM); in experiment [2] (setting [21]), 4 mg/L (≈ 10.4 µM); in [3] (setting [22]) it was 2 mg/L (≈ 5.22 µM); in experiment [4] it was 2 mg/L (≈ 5.22 µM); in experiment [5] (read-out: MIC), 2 mg/L (≈ 5.22 µM). In addition, the MIC in experiment [6] (read-out: MIC) and in experiment [7] (read-out: MIC) was 2 mg/L (≈ 5.22 µM) each time. In addition, the “Fold increase in AK signal” value in experiment [8] (treatment 1.0×MIC) was found to be 220 fold; in [9] (treatment 0.5×MIC), 45 fold; in experiment [9] (treatment 1.0×MIC) it was 39 fold; in [10] (treatment 0.5×MIC), 99 fold; in [10] (treatment 1.0×MIC) it was 296 fold; in experiment [11] (treatment 0.5×MIC), 60 fold. Besides, in [11] (treatment 1.0×MIC), the “Fold increase in AK signal” value was 85 fold. Besides, in experiment [12], the “decrease in SCV viability (plating)” value worked out at 0.5 log. Moreover, the “increase in AK signal compared to mock-treated cells” value in experiment [12] was 2.5 fold.

Turning to `CC(=O)NC[C@H]1CN(c2ccc(N3CCOCC3)c(F)c2)C(=O)O1` [Linezolid, linezolid], the minimum inhibitory concentration (MIC) in experiment [1] (setting [23]) is 16 mg/L (≈ 47.4 µM); in experiment [2] (Staphylococcus aureus), 2 mg/L (≈ 5.93 µM); in experiment [2] (setting [21]), 2 mg/L (≈ 5.93 µM); in experiment [3] (Klebsiella pneumoniae, CKP1), greater than 256 mg/L; in experiment [4] it was 256 mg/L (≈ 759 µM); in [5], greater than 256 mg/L. The MIC in experiment [6] and in experiment [7] was greater than 256 mg/L each time. For the same molecule, the “Fold increase in AK signal” value in experiment [13] (treatment 0.5×MIC) and in [13] (treatment 1.0×MIC) was 2 fold in each case.

On to `Cc1cc(NS(=O)(=O)c2ccc(N)cc2)no1` [Sulfamethoxazole, sulfamethoxazole], for which the MIC in experiment [1] (setting [23]) was greater than 256 mg/L; in experiment [2] (Staphylococcus aureus), 2 mg/L (≈ 7.9 µM); in [2] (setting [21]) it was greater than 256 mg/L; in experiment [3] (setting [22]), greater than 256 mg/L; in experiment [4] it was 8 mg/L (≈ 31.6 µM); in experiment [5] (read-out: MIC) it was 256 mg/L (≈ 1010 µM). In addition, the MIC in [6] (read-out: MIC) and in experiment [7] (read-out: MIC) was greater than 256 mg/L throughout. Further, the fold induction at 50 µM is 1 in experiment [14] (384-well format); 0.7 in experiment [15] (384-well format); 0.6 in experiment [16] (384-well format); 1.3 in experiment [17] (384-well format); 0.7 in experiment [18] (384-well format); 0.7 in [19] (384-well format). For the same molecule, the fold induction at 50 µM in experiment [20] (384-well format) was 0.7.

Turning to `CO/N=C(\C(=O)N[C@@H]1C(=O)N2C(C(=O)O)=C(CSc3nc(=O)c(=O)[nH]n3C)CS[C@H]12)c1csc(N)n1` [Ceftriaxone, ceftriaxone], the MIC in experiment [1] (setting [23]) was greater than 256 mg/L; in experiment [2] (Staphylococcus aureus), 2 mg/L (≈ 3.61 µM); in experiment [2] (setting [21]), greater than 256 mg/L; in experiment [3] (setting [22]) it was 2 mg/L (≈ 3.61 µM); in experiment [4] it was 8 mg/L (≈ 14.4 µM); in experiment [5] (read-out: MIC), 4 mg/L (≈ 7.21 µM). Also, the MIC in experiment [6] (read-out: MIC) and in experiment [7] (read-out: MIC) was 2 mg/L (≈ 3.61 µM) each time. The “Fold increase in AK signal” value turned out to be 50 fold in experiment [8] (treatment 0.5×MIC); 55 fold in experiment [8] (treatment 1.0×MIC); 2 fold in experiment [9] (treatment 0.5×MIC); 14 fold in experiment [9] (treatment 1.0×MIC); 20 fold in [10] (treatment 0.5×MIC); 17 fold in [10] (treatment 1.0×MIC). Also, the “Fold increase in AK signal” value is listed as 51 fold in experiment [11] (treatment 0.5×MIC) and 76 fold in [11] (treatment 1.0×MIC).

On to `NC[C@H]1O[C@H](O[C@H]2[C@H](O)[C@@H](O[C@H]3O[C@H](CO)[C@@H](O)[C@H](N)[C@H]3O)[C@H](N)C[C@@H]2N)[C@H](O)[C@@H](O)[C@@H]1O` [Kanamycin, kanamycin], for which the MIC in [1] (Enterococcus faecium) is greater than 256 mg/L; in [2] (Staphylococcus aureus), 16 mg/L (≈ 33 µM); in experiment [2] (Staphylococcus aureus, USA300), greater than 256 mg/L; in [3] (setting [22]) it was 2 mg/L (≈ 4.13 µM); in experiment [4], 2 mg/L (≈ 4.13 µM); in experiment [5] (read-out: MIC), 256 mg/L (≈ 528 µM). Moreover, the minimum inhibitory concentration (MIC) in experiment [6] (read-out: MIC) was 2 mg/L (≈ 4.13 µM); in [7] (read-out: MIC) it was 32 mg/L (≈ 66 µM). In addition, the “Fold increase in AK signal” value in experiment [8] (treatment 0.5×MIC) is recorded as 1 fold; in experiment [8] (treatment 1.0×MIC), 1 fold; in experiment [10] (treatment 0.5×MIC), 1 fold; in experiment [10] (treatment 1.0×MIC), 1 fold; in [11] (treatment 0.5×MIC), 55 fold; in [11] (treatment 1.0×MIC), 70 fold.

With `CC1(C)S[C@@H]2[C@H](NC(=O)[C@H](N)c3ccccc3)C(=O)N2[C@H]1C(=O)O` [Ampicillin, ampicillin], the minimal inhibitory concentration (MIC) is greater than 256 mg/L in [1] (Enterococcus faecium); 2 mg/L (≈ 5.72 µM) in experiment [2] (Staphylococcus aureus); greater than 256 mg/L in experiment [2] (Staphylococcus aureus, USA300); greater than 256 mg/L in [3] (Klebsiella pneumoniae, CKP1); 256 mg/L (≈ 733 µM) in experiment [4]; greater than 256 mg/L in experiment [5]. The MIC in [6] is greater than 256 mg/L; in experiment [7] it was 128 mg/L (≈ 366 µM). The results for the “Fold increase in AK signal” value in experiment [11] (treatment 0.5×MIC) and in experiment [11] (treatment 1.0×MIC) were 50 fold and 74 fold, respectively.

As for `CCCCCCCCNC(C)C(O)c1ccc(SC(C)C)cc1` (centres unmarked) [Suloctidil, suloctidil, reference compound], the MIC in experiment [1] (setting [23]) is 8 mg/L (≈ 23.7 µM); in experiment [5] it was “did not elicit an antimicrobial response”. Besides, the fold induction at 50 µM is 5.4 in experiment [14] (planktonic E. faecium); 2 in [15] (planktonic S. aureus); 2.5 in experiment [16] (planktonic K. pneumoniae); 4.1 in experiment [17] (planktonic A. baumannii); 6.8 in [18] (planktonic P. aeruginosa); 0.9 in experiment [19] (planktonic E. cloacae). Moreover, the fold induction at 50 µM in experiment [20] (planktonic E. coli) is 1.9. Also, the “activity in primary and confirmatory AK screens” value in experiment [18] (P. aeruginosa, 50 μM, cutoff 3-fold increase in AK) was “active”.

A word on the MIC: it is the smallest concentration in the dilution series that meets the test's criterion for growth inhibition.
